# According to ChEMBL document CHEMBL6103565, “Current strategies in design and synthesis of antifungals hybrid and chimeric diazine derivatives” (Bioorg Med Chem, 2025):
# Key:
# Type in all cases: functional
# Microsporum audouinii = experiment: Antifungal activity against Microsporum audouinii
# Candida albicans [1] = experiment: Antifungal activity against Candida albicans
# Aspergillus fumigatus [2] = experiment: Antifungal activity against Aspergillus fumigatus assessed as reduction in fungal growth
# Candida albicans [3] = experiment: Antifungal activity against azole-resistant Candida albicans ATCC 18804 assessed as reduction in fungal growth by XTT assay
# Geotrichum candidum = experiment: Antifungal activity against Geotrichum candidum
# [4] = tested on: Syncephalastrum racemosum; experiment: Antifungal activity against Syncephalastrum racemosum
# Candida albicans [5] = experiment: Antifungal activity against Candida albicans ATCC 10231 assessed as inhibition of mycelial growth relative to control
# Botrytis cinerea = experiment: Antifungal activity against Botrytis cinerea assessed as reduction in fungal growth at 50 ug/ml relative to control
# Botryosphaeria dothidea = experiment: Antifungal activity against Botryosphaeria dothidea assessed as reduction in fungal growth at 50 ug/ml relative to control
# Phomopsis = experiment: Antifungal activity against Phomopsis assessed as reduction in fungal growth at 50 ug/ml relative to control
# Aspergillus fumigatus [6] = experiment: Antifungal activity against Aspergillus fumigatus assessed as reduction in fungal growth incubated for 72 hrs by agar well diffusion method
# Candida albicans [7] = experiment: Antifungal activity against Candida albicans ATCC 90028 assessed as growth inhibition incubated for 36 hrs by resazurin dye based assay
# Candida albicans [8] = experiment: Antifungal activity against azole-resistant Candida albicans ATCC 10231 assessed as fungal growth inhibition incubated for 24 hrs by CLSI protocol based broth microdilution method
# Candida albicans [9] = experiment: Antifungal activity against Candida albicans ATCC 90028 assessed as reduction in microbial growth
# Candida tropicalis = experiment: Antifungal activity against Candida tropicalis ATCC 750 assessed as reduction in microbial growth
# Nakaseomyces glabratus = experiment: Antifungal activity against Candida glabrata ATCC 90030 assessed as reduction in microbial growth
# Candida albicans [10] = experiment: Antifungal activity against Candida albicans assessed as zone of inhibition by disc diffusion method
# Aspergillus flavus = experiment: Antifungal activity against Aspergillus flavus assessed as zone of inhibition by disc diffusion method
# Candida albicans [11] = experiment: Antifungal activity against Candida albicans assessed as zone of inhibition
# Aspergillus niger [12] = experiment: Antifungal activity against Aspergillus niger assessed as zone of inhibition
# Aspergillus niger [13] = experiment: Antifungal activity against Aspergillus niger ATCC 16404 assessed as inhibition of mycelial growth relative to control
# Cryptococcus neoformans = experiment: Antifungal activity against Cryptococcus neoformans
# Candida albicans [14] = experiment: Antifungal activity against azole-resistant Candida albicans ATCC 10231 assessed as reduction in fungal growth by XTT assay
# Aspergillus niger [15] = experiment: Antifungal activity against Aspergillus niger assessed as zone of inhibition by disc diffusion method
# [16] = tested on: Talaromyces purpureogenus; experiment: Antifungal activity against Talaromyces purpureogenus assessed as zone of inhibition by disc diffusion method
# Candida albicans [17] = experiment: Antifungal activity against Candida albicans NRRL-Y477 assessed as zone of inhibition by disc diffusion method
# Aspergillus terreus = experiment: Antifungal activity against Aspergillus terreus assessed as zone of inhibition by disc diffusion method
# Candida albicans [18] = experiment: Antifungal activity against azole-resistant Candida albicans ATCC 18804 assessed as fungal growth inhibition incubated for 24 hrs by CLSI protocol based broth microdilution method
compound,measurement,setting,value
COc1ccc(C2CC(=Nn3c(=O)cc[nH]c3=O)CC(c3ccc(OC)cc3)S2)cc1 (stereo unspecified),MIC,Microsporum audouinii,4 µg/mL
same,MIC,Candida albicans [1],0.25 µg/mL
O=C1N/C(=N/c2nn(-c3ccccc3)nc2C(=O)Nc2cnccn2)S/C1=C\c1ccccc1,MIC,Aspergillus fumigatus [2],< 214 µg/mL
COc1ccc(/N=N/c2sc(-n3[nH]c(=O)ccc3=O)nc2C)cc1,MIC,Candida albicans [3],0.2 µg/mL
Cc1nn(-c2ccccc2)c2nc3sc(C(=O)OCC(=O)c4ccccc4)c(N)c3nc12,MIC,Geotrichum candidum,4 µg/mL
same,MIC,[4],5 µg/mL
same,MIC,Candida albicans [1],5 µg/mL
CCOC(=O)c1sc2nc3c(nc2c1N)c(C)nn3-c1ccccc1,MIC,Geotrichum candidum,5 µg/mL
same,MIC,[4],5 µg/mL
same,MIC,Candida albicans [1],5 µg/mL
O=C(Nc1ccccc1)c1nnn2c1[nH]c(=O)c1ccccc12,inhibition (INH),Candida albicans [5],40%
Cc1nc(Oc2ccc(C(=O)Nc3ccc(OC(F)(F)F)c(Cl)c3)cc2)cc(C(F)(F)F)n1,inhibition at 50 µg/mL,Botrytis cinerea,98.5%
same,inhibition at 50 µg/mL,Botryosphaeria dothidea,98.5%
same,inhibition at 50 µg/mL,Phomopsis,92%
Cc1n[nH]c2c(C#N)c(=O)n(-c3ccc(N)cc3)nc12,MIC,Aspergillus fumigatus [6],1.95 µg/mL
O=C(Nc1ccc(F)c(F)c1)N1CCn2c(nnc2C(F)(F)F)C1,MIC,Candida albicans [7],6.25 µg/mL
O=c1ccc(=O)n(-c2nc(-c3cc4ccccc4oc3=O)cs2)[nH]1,MIC,Candida albicans [8],5.6 µg/mL
C[C@]12CC[C@H](O)CC1=CC[C@@H]1[C@@H]2CC[C@]2(C)C3=C(C[C@@H]12)C(c1ccccc1)N1C=CSC1=N3 (stereo partly specified),MIC,Candida albicans [9],750 µg/mL
same,MIC,Candida tropicalis,> 1000 µg/mL
same,MIC,Nakaseomyces glabratus,> 1000 µg/mL
CC(=O)N/C(=C\c1ccc(Cl)cc1)c1nc2c(=O)[nH]c(=O)n(Cc3ccccc3Cl)c2[nH]1,inhibition zone (IZ),Candida albicans [10],12 mm
same,inhibition zone (IZ),Aspergillus flavus,10 mm
FC(F)(F)c1nnc2n1CCN(C(=S)Nc1ccc(Br)cc1)C2,MIC,Candida albicans [7],6.25 µg/mL
CC(=O)N(C(C)=O)N1C(=O)CC(=O)N(c2nnc(-c3cc([N+](=O)[O-])cc([N+](=O)[O-])c3)s2)C1=S,inhibition zone (IZ),Candida albicans [11],23 mm
same,inhibition zone (IZ),Aspergillus niger [12],21 mm
Cc1nc2c(sc3nc4c(nc32)c(C)nn4-c2ccccc2)c(=O)o1,MIC,Geotrichum candidum,4 µg/mL
same,MIC,[4],3 µg/mL
same,MIC,Candida albicans [1],3 µg/mL
CCCCCCCC(=O)O[C@@H]1[C@H](OC(=O)CCCCCCC)[C@@H](COC(c2ccccc2)(c2ccccc2)c2ccccc2)O[C@H]1n1ccc(=O)[nH]c1=O,inhibition (INH),Candida albicans [5],70%
same,inhibition (INH),Aspergillus niger [13],99%
O=c1cc[nH]c(=O)n1N=C1CC(c2ccc(O)cc2)SC(c2ccc(O)cc2)C1 (stereo unspecified),MIC,Cryptococcus neoformans,4 µg/mL
same,MIC,Candida albicans [1],0.25 µg/mL
O=C1N=C(n2[nH]c(=O)ccc2=O)S/C1=N\Nc1ccc(Cl)cc1Cl,MIC,Candida albicans [14],2.1 µg/mL
same,MIC,Candida albicans [3],0.6 µg/mL
CCOC(=O)c1c(C)nc2sc3c(-n4nc(C)cc4C)ncnc3c2c1-c1cccs1,inhibition zone (IZ),Aspergillus niger [15],24 mm
same,inhibition zone (IZ),[16],25 mm
CCOC(=O)c1c(C)nc2sc3c(ncn4nc(C)nc34)c2c1-c1cccs1,inhibition zone (IZ),Candida albicans [17],25 mm
same,inhibition zone (IZ),Aspergillus terreus,25 mm
O=C1NC(=O)C(=C2NN=C(Nc3nnc(-c4cc([N+](=O)[O-])cc([N+](=O)[O-])c4)s3)S2)C(=O)N1,inhibition zone (IZ),Candida albicans [11],25 mm
same,inhibition zone (IZ),Aspergillus niger [12],23 mm
O=C1N=C(n2[nH]c(=O)ccc2=O)S/C1=N\Nc1ccc(-c2ccc(N/N=C3/SC(n4[nH]c(=O)ccc4=O)=NC3=O)cc2)cc1,MIC,Candida albicans [14],3.1 µg/mL
O=c1ccc(=O)n(-c2nc(-c3cccs3)cs2)[nH]1,MIC,Candida albicans [8],3.9 µg/mL
same,MIC,Candida albicans [18],1.9 µg/mL
O=C1CS/C(=N\c2nn(-c3ccccc3)nc2C(=O)Nc2cnccn2)N1,MIC,Aspergillus fumigatus [2],< 209 µg/mL
O=C(Nc1ccc(F)cc1)N1CCn2c(nnc2C(F)(F)F)C1,MIC,Candida albicans [7],6.25 µg/mL
Cc1nc(Oc2ccc(C(=O)Nc3ccc(OC(F)(F)F)cc3)cc2)cc(C(F)(F)F)n1,inhibition at 50 µg/mL,Botrytis cinerea,96.7%
same,inhibition at 50 µg/mL,Botryosphaeria dothidea,93.1%
same,inhibition at 50 µg/mL,Phomopsis,89%
CCOC(=O)c1c(C)nc2sc3c(=O)[nH]cnc3c2c1-c1cccs1,inhibition zone (IZ),Candida albicans [17],25 mm
same,inhibition zone (IZ),[16],25 mm
Cc1cc(C)nc(Nc2ccccc2)n1 [PYRIMETHANIL],inhibition at 50 µg/mL,Botrytis cinerea,82.8%
same,inhibition at 50 µg/mL,Botryosphaeria dothidea,84.4%
same,inhibition at 50 µg/mL,Phomopsis,85.1%
C[C@@H](c1ncncc1F)[C@](O)(Cn1cncn1)c1ccc(F)cc1F [VORICONAZOLE],inhibition zone (IZ),Aspergillus niger [15],20 mm
same,inhibition zone (IZ),[16],17 mm
same,inhibition zone (IZ),Aspergillus terreus,20 mm
